Literature values, collected in patent US7807616B2, “Geranonitrile substitute” (Henkel AG & Co. KGaA, priority 2004, dated 2010).
Like-named read-outs stand apart in the source and are kept apart here.

Legend:
[1] = new findings (BASF, 2003); status 2004
[2] = solution heated at 100° C. for two hours

| SMILES | class under the EU classification criteria (CMR) [1] | diphosphate produced by hydrolysis [2] | orthophosphate produced by hydrolysis [2] | amount of the anhydrous salt that dissolves in 100 g of water (at 60°) | amount of the anhydrous salt that dissolves in 100 g of water (at 100°) | amount of the anhydrous salt that dissolves in 100 g of water (room temperature) |
| --- | --- | --- | --- | --- | --- | --- |
| CC(C)=CCCC(C)=CC#N [geranonitrile, 3,7-dimethyl-2,6-octadienenitrile] | category 3 mutagen (M:3) |  |  |  |  |  |
| O=P([O-])([O-])OP(=O)([O-])OP(=O)([O-])[O-].[Na+].[Na+].[Na+].[Na+].[Na+] [pentasodium triphosphate] |  | ~15% | about 8% | about 20 g | around 32 g | About 17 g |
